Data: patent EP3318127A1, “COMPOSITIONS COMPRISING KHCO3” (BASF SE, priority 2013, dated 2015)

Assays:
Type in all cases: cell-based
[1] = system: Septoria tritici; test: Activity against leaf blotch on wheat caused by Septoria tritici (microtiter plate test); settings: 0.25 ppm; 7 days after inoculation, 405 nm
[2] = system: Botrytis cinerea; test: Activity against the grey mold Botrytis cinerea in the microtiterplate test; settings: 7 days after inoculation, 405 nm
[3] = system: Pyricularia oryzae; settings: 4 ppm; 7 days after inoculation, 405 nm
[4] = system: Sclerotinia sclerotiorum; test: Activity against stem rot on wheat caused by Sclerotinia sclerotiorum (microtiter plate test); settings: 7 days after inoculation, 405 nm

| SMILES | Observed efficacy [1] [%] | Observed efficacy ([2]; 1 ppm) [%] | Observed efficacy ([2]; 4 ppm) [%] | Observed efficacy [3] [%] | Observed efficacy ([4]; 1 ppm) [%] | Observed efficacy ([4]; 4 ppm) [%] | Observed efficacy ([4]; 16 ppm) [%] |
| --- | --- | --- | --- | --- | --- | --- | --- |
| O=C(Nc1ccccc1-c1ccc(Cl)cc1)c1cccnc1Cl [Boscalid, 2-chloro-N-(4'-chlorobiphenyl-2-yl)-nicotinamide] | 40 | – | – | – | – | – | – |
| Cc1cc(C)nc(Nc2ccccc2)n1 [Pyrimethanil, 4,6-dimethylpyrimidin-2-ylphenylamine] | – | 39 | 60 | 37 | 20 | 27 | 49 |
